{"source": "patent US20140079741A1", "about": "“INHIBITION AND TREATMENT OF BIOFILMS” (priority 2011, published 2014)", "key": {"[1]": {"system": "C. albicans CAF2 biofilms on implanted catheter fragments", "assay": "Rat subcutaneous catheter infection model (in vivo biofilm susceptibility)", "parameters": "species or system Candida albicans", "description": "A rat subcutaneous catheter infection model was used for in vivo biofilm susceptibility studies, in which 6 rats were treated with sterile saline (control, 40 catheters), 6 rats with diclofenac (48 catheters), 5 rats with caspofungin (40 catheters) and 6 rats with a combination of diclofenac and caspofungin (45 catheters).\nDiclofenac and caspofungin solutions for intravenous injection were prepared in sterile physiological solution. The administration of diclofenac (3 mg/kg) started immediately after the catheter implant and continued daily up to 9 days. The treatment with caspofungin (3 mg/kg) was initiated after 48 h of in vivo biofilm development and maintained by daily injections for 7 days. Sterile saline was administered to the control group. Further analysis and quantification of the number of cells per individual biofilm was performed as previously described. Statistical analysis was performed using unpaired t-test; differences were considered significant if p<0.05. Data are the means and SEM of 2 independent experiments. Six independent catheters retrieved from each test group were used for scanning electron microscopy (SEM) analyses. Prior to the SEM analysis, each catheter fragment was cut longitudinally through the lumen and subsequently prepared for microscopy as previously described."}, "[2]": {"system": "C. albicans WT CAF2-1 biofilms", "assay": "Biofilm cell viability by CellTiter-Blue staining", "format": "cell-based, Candida albicans", "conditions": "WT biofilms grown with 0.5-3 mM diclofenac, various caspofungin concentrations, 24 h", "description": "To this end, cultures of the WT CAF2-1 were grown overnight (2*10^8 cells/ml) in YPD (1% yeast extract, 2% peptone, 2% glucose) and washed 3 times in PBS (pH 7.4). After dilution (OD600=0.5) in SC (1% CSM, complete amino acid supplement mixture, 1% YNB, yeast nitrogen base; 2% glucose), the cultures were resuspended (100 μl/well) in a 96well microtiter plate. After 1 h of adhesion, the adherent WT cells were incubated with or without 2 mM (about 500 μg/ml) diclofenac (in DMSO, resulting in final concentration of 2.4% DMSO) and allowed biofilm growth for 16 h in SC. Next, the resulting biofilms were washed with PBS and treated with various concentrations of miconazole (0-500 μM) for 24 h in the absence or presence of diclofenac. After washing, the remaining living cells using the CellTiter-Blue quantification method were determined.\n(§1) Using the same setup as above, WT biofilms grown in the presence or absence of diclofenac (0.5-3 mM or 148-888 μg/mL) were incubated with various concentrations of Caspofungin (0-150 μM) for 24 h, both in the presence or absence of diclofenac. After washing, the remaining living cells within the biofilm was determined by CellTiter-Blue quantification. The MIC50 of caspofungin, diclofenac and the combination of both drugs against pretreated or mature C. albicans biofilms was quantified by XTT reduction assay (Ramage et al.)."}, "[3]": {"system": "planktonic cultures of C. albicans CAF2-1", "assay": "MIC50 against planktonic cultures (NCCLS M27-A3)", "format": "cell-based, Candida albicans", "conditions": "for MIC50: Candida albicans, planktonic", "description": "(§2) Similar results were obtained by determination of the MIC50 values. The susceptibility testing and determination of minimal inhibitory concentrations (MIC) of diclofenac and caspofungin, and combinations thereof that inhibit fungal growth by 50% (MIC50) were performed according the NCCLS M27-A3 protocol (2008)."}, "[4]": {"system": "C. albicans biofilm cells", "conditions": "caspofungin doses 0.05 μM-0.5 μM, background statement; cited from earlier work"}, "[5]": {"system": "biofilms of C. albicans CAF2-1", "assay": "MIC50 against biofilms (XTT reduction assay)", "format": "cell-based, Candida albicans", "conditions": "for MIC50: Candida albicans", "description": "as §1, §2"}, "[6]": {"system": "C. albicans biofilms grown on catheters", "assay": "In vitro biofilm drug susceptibility on polyurethane catheter pieces (CFU)", "format": "cell-based, Candida albicans", "description": "In an alternative setup, in vitro biofilm drug susceptibility assays were performed using serum-coated 1 cm polyurethane catheter pieces (Arrow International Reading) as described previously. Biofilms were grown in RPMI 1640 (pH 7.0) and Candida cells were allowed to adhere to the substrate for 90 min.\nDiclofenac (2 mM) was administered during the period of adhesion of C. albicans cells on the catheters and throughout the period of biofilm formation. Catheter fragments containing diclofenac-pretreated or untreated mature biofilms were washed and subsequently incubated with caspofungin (125 μM) or water in the presence or absence of diclofenac (2 mM) for 24 h, respectively. Biofilms were washed and quantified by determination of colony forming units. Untreated biofilms were considered as controls. Statistical analysis was performed using unpaired t-test; differences were considered significant if p<0.05. Data are the mean and SEM of five independent experiments using at least two catheters per test group.\nSimilar results were obtained when assessing the antibiofilm effect of caspofungin against mature biofilms, which were formed on diclofenac-soaked catheter fragments versus those formed on unsoaked catheter fragments."}, "C. albicans cells": {"system": "C. albicans cells", "assay": "Morphology of planktonic and biofilm cells (fluorescence microscopy)", "format": "cell-based, Candida albicans", "conditions": "pretreated with diclofenac alone, 0.5-3 mM", "description": "However, the morphology of biofilm cells pretreated with diclofenac alone (ranging from 0.5-3 mM), was not altered."}, "[7]": {"system": "C. albicans biofilm cells", "assay": "Membrane permeability by propidium iodide fluorescence", "format": "cell-based, Candida albicans", "conditions": "2 mM diclofenac during adhesion and growth phase, 24 h, RPMI 1640", "description": "This was further investigated by evaluating the membrane-disruptive activity of diclofenac on in vitro grown C. albicans biofilm cells by measuring the fluorescence enhancement of propidium iodide (PI). To this end, C. albicans biofilms were grown in RPMI 1640 (pH 7.0) in the presence or absence of diclofenac (ranging from 0.25-4 mM) for 24 h. Next, the biofilm cells were incubated with 3% PI for 20 minutes at room temperature in the dark. Membrane permeability was quantified by measurement of PI fluorescence (excitation at 535 nm, emission at 617 nm)."}, "[8]": {"system": "C. albicans biofilms of wild type CAF2", "assay": "Biofilm activity assay, crystal violet quantification (BEC50)", "format": "cell-based, Candida albicans", "conditions": "500 μg/ml diclofenac in the absence of miconazole", "description": "Biofilm activity assay. The activity of miconazole and fluconazole against 16 h-old C. albicans biofilms (10^7 cells/well) was assessed using the crystal violet quantification method. The biofilm-eradicating capacity of a compound was determined as the minimal concentration resulting in 50% eradication of the biofilm (BEC50).\nMiconazole sensitivity was analyzed of biofilms of C. albicans homozygous null mutants affected in genes involved in the cyclic AMP signaling pathway, namely Δcdc35, Δras1, Δpde1, Δpde2 and Δefg1. To this end, the inventors incubated 16 h-old C. albicans biofilms with various concentrations of miconazole for 24 h and determined the remaining biomass using the crystal violet quantification method.\nTo this end, cultures of the WT CAF2-1 were grown overnight (2×10^8 cells/ml) in YPD (1% yeast extract, 2% peptone, 2% glucose) and washed 3 times in PBS (pH 7.4). After dilution (OD600=0.5) in SC (1% CSM, complete amino acid supplement mixture, 1% YNB, yeast nitrogen base; 2% glucose), the cultures were resuspended (100 μl/well) in a 96well microtiter plate. After 1 h of adhesion, the adherent WT cells were incubated with or without 500 μg/ml diclofenac and allowed biofilm formation for 16 h. Next, the resulting biofilms were washed with PBS and treated with various concentrations of miconazole for 24 h in the absence or presence of diclofenac. After washing, the remaining biomass was determined using the crystal violet quantification method.\nThe biofilm-eradicating capacity of a compound was determined as the minimal concentration resulting in 50% eradication of the biofilm (BEC50)."}, "C. albicans WT biofilms": {"system": "C. albicans WT biofilms", "assay": "Biofilm survival by CFU determination (plating on YPD)", "format": "cell-based, Candida albicans", "conditions": "500 μg/ml diclofenac alone", "description": "Using the same setup as in Example 2, WT biofilms grown in the presence or absence of diclofenac (500 μg/ml) or Δefg1 biofilms were incubated with various concentrations of Amphotericin B (AmB) (2.5-10 μg/ml) for 24 h, both in the presence or absence of diclofenac. After washing, the remaining living cells within the biofilm were determined by plating on YPD and determination of colony forming units (CFUs)."}, "[9]": {"conditions": "rats, caspofungin 3 mg/kg 7 days with 48 h diclofenac-pretreatment and further diclofenac 3 mg/kg"}}, "note": "“Also recorded” adds a separate entry of the source.", "data": [{"molecule": "CC[C@H](C)C[C@H](C)CCCCCCCCC(=O)N[C@H]1C[C@@H](O)[C@@H](NCCN)NC(=O)[C@@H]2[C@@H](O)CCN2C(=O)[C@H]([C@H](O)CCN)NC(=O)[C@H]([C@H](O)[C@@H](O)c2ccc(O)cc2)NC(=O)[C@@H]2C[C@@H](O)CN2C(=O)[C@H]([C@@H](C)O)NC1=O", "note": "[caspofungin]", "values": [{"measurement": "sterile catheter fragments retrieved", "setting": "[1]; rats treated with both caspofungin and diclofenac", "value": 29, "unit": "%"}, {"measurement": "number of sterile catheters retrieved", "setting": "[1]; rats treated with both caspofungin and diclofenac (45 catheters)", "value": "thirteen"}, {"measurement": "sterile catheter fragments retrieved", "setting": "[1]; rats treated with caspofungin alone", "value": 7.5, "unit": "%"}, {"measurement": "number of sterile catheters retrieved", "setting": "[1]; rats treated with caspofungin alone (40 catheters)", "value": "three"}, {"measurement": "reduction in biofilm cell numbers compared to control treatment", "setting": "[1]; [9]", "value": "more than 15 fold"}, {"measurement": "reduction in cell numbers compared to caspofungin treatment alone", "setting": "[1]; [9]", "value": "more than 5 fold"}, {"measurement": "reduction in the number of surviving biofilm cells compared to control treatment", "setting": "[1]; rats, caspofungin alone 3 mg/kg daily injections for 7 days", "value": "more than 10 fold"}, {"measurement": "biofilm structure by scanning electron microscopy", "setting": "[1]; rats, caspofungin without diclofenac-pretreatment", "value": "biofilm cells formed in minor clusters"}, {"measurement": "biofilm structure by scanning electron microscopy", "setting": "[1]; rats, diclofenac and caspofungin together", "value": "only scattered yeast cells and hyphae were observed"}, {"measurement": "drop of % survival compared to diclofenac-untreated biofilms", "setting": "[2]", "value": "about 5 fold"}, {"measurement": "MIC50", "setting": "[3]; RPMI 1640, caspofungin alone", "value": "< 0.05", "unit": "µM"}, {"measurement": "MIC50", "setting": "[3]; combination of caspofungin and 2 mM diclofenac", "value": 0.23, "unit": "µM"}, {"measurement": "metabolic activity of C. albicans biofilm cells", "setting": "[4]", "value": "do not decrease the metabolic activity"}, {"measurement": "MIC50", "setting": "[5]; biofilms, caspofungin alone", "value": 6, "unit": "µM"}, {"measurement": "MIC50", "setting": "[5]; biofilms, caspofungin in combination with 2 mM diclofenac-pretreatment", "value": "< 0.75", "unit": "µM"}, {"measurement": "MIC50", "setting": "[5]; coincubation of mature biofilms with caspofungin and 2 mM diclofenac", "value": 1.5, "unit": "µM"}, {"measurement": "MIC50 against biofilms relative to MIC50 against planktonic cultures", "setting": "[5]; caspofungin alone", "value": "at least 100 times"}, {"measurement": "FICI", "setting": "[5]; diclofenac coincubation/caspofungin combination", "value": 0.25}, {"measurement": "FICI", "setting": "[5]; diclofenac pretreatment/caspofungin combination", "value": 0.125}, {"measurement": "reduction of the number of biofilm cells compared to control treatment", "setting": "[6]; 125 μM caspofungin alone, 24 h, untreated/unsoaked catheters", "value": "did not result in a statistically significant reduction; also recorded: did not display significant activity"}, {"measurement": "reduction of the number of in vitro biofilm cells compared to untreated biofilms", "setting": "[6]; 2 mM diclofenac during biofilm growth, then 125 μM caspofungin 24 h", "value": "at least 12 fold"}, {"measurement": "reduction of the number of biofilm cells compared to control treatment", "setting": "[6]; biofilms grown on diclofenac-soaked catheters, 125 μM caspofungin", "value": "at least 17 fold"}]}, {"molecule": "O=C(O)Cc1ccccc1Nc1c(Cl)cccc1Cl", "note": "[diclofenac]", "values": [{"measurement": "biofilm structure by scanning electron microscopy", "setting": "[1]; rats, diclofenac alone", "value": "no biofilm-inhibitory effect"}, {"measurement": "number of biofilm cells on catheters compared to control treatment", "setting": "[1]; rats, diclofenac alone 3 mg/kg intravenous daily, 48 h pretreatment and up to 7 days further", "value": "no significant difference"}, {"measurement": "morphology of biofilm cells", "setting": "C. albicans cells", "value": "not altered"}, {"measurement": "inhibitory activity against planktonic cells", "setting": "[3]; diclofenac up to 2 mM", "value": "no inhibitory activity"}, {"measurement": "membrane permeability compared to untreated cells", "setting": "[7]", "value": "significantly increased membrane permeability"}, {"measurement": "remaining C. albicans biofilms compared to untreated WT biofilms", "setting": "[8]", "value": "about 50%"}, {"measurement": "less biofilm cells compared to untreated WT biofilms", "setting": "C. albicans WT biofilms", "value": "about 50%"}, {"measurement": "MIC50", "setting": "[5]; biofilms, diclofenac alone", "value": 2000, "unit": "µM"}, {"measurement": "number of biofilm cells compared to untreated catheters", "setting": "[6]; 2 mM diclofenac pretreatment alone", "value": "no significant difference"}]}]}
